In patent US8524911B2, “3-arylamino pyridine derivatives” (Merck Serono SA, priority 2004, dated 2013) one finds IC50 data, which are given here for 23 molecules.

The subject of experiment [1] is human pancreatic MiaPaCa-2 cells. Put plainly: Tumor cell proliferation assay (ATP Lite), MiaPaCa-2. Type of experiment: cell-based. Conditions: MIA PaCa-2, 96 h, 4 days. As for the experimental part: Assay 2: Tumor Cell Proliferation Assays (ATP Lite)
Murine colon C26, human melanoma A375 and MeI5 or human pancreatic MiaPaCa-2 cells were plated in 96 well Corning white plates (1500 cells/well for C26, and 2000 cells/well for A375, and MiaPaCa-2) and cultured overnight at 37° C. in 5% CO2. Inhibitors were serially diluted in 100% DMSO and subsequently added to cells to reach a final concentration of 0.25% DMSO. The cells were incubated for 4 days in the presence of test compounds in cell growth media (DMEM with 10% fetal bovine serum, 2 mM glutamine for C26, and MiaPaCa-2, and RPMI with 10% fetal bovine serum, 2 mM glutamine for A375). Cell proliferation was quantitated using the ATP lite cell proliferation kit (Packard). Columns 4-6 show the concentration of compounds required to induce 50% cell death (IC50 in μM) of […]. With “+” meaning 3 μM<IC50≦10 μM and “++” IC50≦3 μM and “n.d.” means not determined. Few compounds were also tested on human melanoma cell MeI5.

For the next experiment, the target named is human MEK1 (Homo sapiens, UniProt Q02750). As to the kind of experiment: MEK-1 Enzyme Assay (LANCE-HTRF). Conditions: 100 nM MEK1, 15 μM ATP, 300 nM ERK2, two hours; read-out: MEK inhibition. It is filed as biochemical. In outline:
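TR-FRET readout of MEK1-catalysed ERK1 phosphorylation; after a 2 h reaction, Eu-anti-PY20 (5 nM) and anti-GST-APC (50 nM) were added in buffer with 50 mM EDTA and 0.05% BSA, then incubated 1 h in the dark.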
In general terms: In TR-FRET formats the signal depends on donor and acceptor labels being close together.

The next experiment concerns Murine colon C26 cells. As to the kind of experiment: Tumor cell proliferation assay (ATP Lite), C26. Type of experiment: cell-based. The note with it: Mus musculus, 96 h, 4 days. The gist of the method: (§1)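 Cells seeded at 1500/well (C26) or 2000/well (A375, MiaPaCa-2) grew overnight, then were exposed to serially diluted compounds (0.25% DMSO final) for 4 days in serum-containing DMEM or RPMI. Viability read by ATPlite luminescence; IC50 is the concentration giving 50% cell death.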

The subject of experiment [2] is human melanoma A375 cells. Put plainly: Tumor cell proliferation assay (ATP Lite), A375. Type of experiment: cell-based. The note with it: A-375, 96 h, 4 days. The gist of the method: as §1

Chain of human MEK1 (Q02750 whole entry): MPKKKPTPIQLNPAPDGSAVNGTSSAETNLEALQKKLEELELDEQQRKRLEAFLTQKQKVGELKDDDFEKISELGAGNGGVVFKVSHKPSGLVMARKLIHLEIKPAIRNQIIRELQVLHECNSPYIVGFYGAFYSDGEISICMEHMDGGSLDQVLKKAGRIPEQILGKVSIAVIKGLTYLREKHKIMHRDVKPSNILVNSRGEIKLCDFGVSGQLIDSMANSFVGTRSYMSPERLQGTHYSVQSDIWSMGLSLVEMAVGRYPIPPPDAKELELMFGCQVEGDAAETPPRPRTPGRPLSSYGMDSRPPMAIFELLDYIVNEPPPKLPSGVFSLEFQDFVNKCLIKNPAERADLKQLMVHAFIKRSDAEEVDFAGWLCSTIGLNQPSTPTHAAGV

Take `C[C@H](O)CNC(=O)c1ccncc1Nc1ccc(I)cc1F` [Example 41, 3-[(2-fluoro-4-iodophenyl)amino]-N-[(2S)-2-hydroxypropyl]-isonicotinamide]: the IC50 is no more than 3 µM in experiment [1], less than 1000 nM at human MEK1, no more than 3 µM with Murine colon C26 cells and no more than 3 µM in experiment [2].

As for `Cc1ccc(CCNC(=O)c2ccncc2Nc2ccc(I)cc2F)cc1` [Example 85, 3-[(2-fluoro-4-iodophenyl)amino]-N-[2-(4-methylphenyl)-ethyl]isonicotinamide], the IC50 in experiment [1] is 3 to 10 µM; at human MEK1, less than 1000 nM; with Murine colon C26 cells, 3 to 10 µM; in experiment [2] it was no more than 3 µM.

`O=C(O)CONC(=O)c1ccncc1Nc1ccc(I)cc1F` [Example 92, [({3-[(2-fluoro-4-iodophenyl)amino]isonicotinoyl}amino)oxy]acetic acid]: the IC50 in experiment [1] is 3 to 10 µM; on human MEK1, less than 1000 nM; in the experiment with Murine colon C26 cells, 3 to 10 µM; in experiment [2] it was no more than 3 µM.

For the molecule `COCCN(C)C(=O)c1ccncc1Nc1ccc(I)cc1F` [Example 24, 3-[(2-fluoro-4-iodophenyl)amino]-N-(2-methoxyethyl)-N-methyl-isonicotinamide], the IC50 was no more than 3 µM in experiment [1], less than 1000 nM at human MEK1, no more than 3 µM in the experiment on Murine colon C26 cells and no more than 3 µM in experiment [2].

For `O=C(NNc1cc(C(F)(F)F)cc(C(F)(F)F)c1)c1ccncc1Nc1ccc(I)cc1F` [Example 101], the IC50 in experiment [1] was 3 to 10 µM; at human MEK1, less than 1000 nM; in the experiment on Murine colon C26 cells, 3 to 10 µM; in experiment [2], no more than 3 µM.

For `COc1ccccc1CCNC(=O)c1ccncc1Nc1ccc(I)cc1F` [Example 27, 3-[(2-fluoro-4-iodophenyl)amino]-N-[2-(2-methoxyphenyl)-ethyl]isonicotinamide], the IC50 in experiment [1] is 3 to 10 µM; at human MEK1, less than 1000 nM; with Murine colon C26 cells it was 3 to 10 µM; in experiment [2] it was 3 to 10 µM.

For the molecule `COc1cccc(C(=O)NNC(=O)c2ccncc2Nc2ccc(I)cc2F)c1` [Example 55, 3-[(2-fluoro-4-iodophenyl)amino]-N′-(3-methoxybenzoyl)-isonicotinohydrazide], the IC50 is 3 to 10 µM in experiment [1], less than 1000 nM at human MEK1, 3 to 10 µM in the experiment on Murine colon C26 cells and no more than 3 µM in experiment [2].

Take `O=C(NCCCn1ccnc1)c1cc(Br)ncc1Nc1ccc(I)cc1F` [Example 72, 2-Bromo-5-(2-fluoro-4-iodo-phenylamino)-N-(3-imidazol-1-yl-propyl)-isonicotinamide]: the IC50 was 3 to 10 µM in experiment [1], less than 1000 nM on human MEK1, 3 to 10 µM in the experiment on Murine colon C26 cells and no more than 3 µM in experiment [2].

On to `O=C(NC1CCCC1)c1ccncc1Nc1ccc(I)cc1F` [Example 60, N-cyclopentyl-3-[(2-fluoro-4-iodophenyl)amino]isonicotinamide], for which the IC50 is no more than 3 µM in experiment [1], less than 1000 nM at human MEK1, no more than 3 µM with Murine colon C26 cells and no more than 3 µM in experiment [2].

As for `O=C(NCC1CC1)c1ccncc1Nc1ccc(I)cc1F` [Example 53, N-(cyclopropylmethyl)-3-[(2-fluoro-4-iodophenyl)amino]-isonicotinamide], the IC50 in experiment [1] was no more than 3 µM; on human MEK1, less than 1000 nM; with Murine colon C26 cells it was no more than 3 µM; in experiment [2], no more than 3 µM.

Regarding `C=CCONC(=O)c1ccncc1Nc1ccc(I)cc1Cl` [Example 77, N-allyloxy-3-(2-chloro-4-iodo-phenylamino)-isonicotinamide], the IC50 in experiment [1] is 3 to 10 µM; on human MEK1, less than 1000 nM; in the experiment with Murine colon C26 cells, 3 to 10 µM; in experiment [2], no more than 3 µM.

For `O=C(NCCO)c1ccncc1Nc1ccc(I)cc1F` [Example 15, 3-(2-Fluoro-4-iodo-phenylamino)-N-(2-hydroxy-ethyl)-isonicotinamide], the IC50 in experiment [1] was no more than 3 µM; at human MEK1 it was less than 1000 nM; with Murine colon C26 cells, no more than 3 µM; in experiment [2], no more than 3 µM.

Turning to `O=C(NCCCN1CCCC1=O)c1ccncc1Nc1ccc(I)cc1F` [Example 30, 3-[(2-fluoro-4-iodophenyl)amino]-N-[3-(2-oxopyrrolidin-1-yl)propyl]isonicotinamide], the IC50 in experiment [1] was no more than 3 µM; on human MEK1, less than 1000 nM; in the experiment with Murine colon C26 cells, no more than 3 µM; in experiment [2], no more than 3 µM.

As for `O=C(c1ccncc1Nc1ccc(I)cc1F)N1CCOCC1` [Example 17, [3-(2-Fluoro-4-iodo-phenylamino)-pyridin-4-yl]-morpholin-4-yl-methanone], the IC50 is no more than 3 µM in experiment [1], less than 1000 nM at human MEK1, no more than 3 µM with Murine colon C26 cells and no more than 3 µM in experiment [2].

Consider `CN(C)C(=O)c1ccncc1Nc1ccc(I)cc1Cl` [Example 23, 3-[(2-chloro-4-iodophenyl)amino]-N-dimethylisonicotinamide], for which the IC50 was no more than 3 µM in experiment [1], less than 1000 nM at human MEK1, no more than 3 µM in the experiment with Murine colon C26 cells and no more than 3 µM in experiment [2].

For `O=C(NNc1ccnc2cc(Cl)ccc12)c1ccncc1Nc1ccc(I)cc1F` [Example 56, N′-(7-chloroquinolin-4-yl)-3-[(2-fluoro-4-iodophenyl)amino]-isonicotino-hydrazide], the IC50 in experiment [1] was 3 to 10 µM; at human MEK1, 1000 to 10000 nM; in the experiment with Murine colon C26 cells, 3 to 10 µM; in experiment [2], no more than 3 µM.

Consider `O=C(NNc1ccccn1)c1ccncc1Nc1ccc(I)cc1F` [Example 49, 3-[(2-fluoro-4-iodophenyl)amino]-N′-pyridin-2-ylisonicotino-hydrazide], for which the IC50 in experiment [1] is no more than 3 µM; at human MEK1, less than 1000 nM; in the experiment on Murine colon C26 cells it was no more than 3 µM; in experiment [2] it was no more than 3 µM.

As for `COCCNC(=O)c1ccncc1Nc1ccc(I)cc1F` [Example 16, 3-(2-Fluoro-4-iodo-phenylamino)-N-(2-methoxy-ethyl)-isonicotinamide], the IC50 in experiment [1] is no more than 3 µM; on human MEK1, less than 1000 nM; in the experiment on Murine colon C26 cells it was no more than 3 µM; in experiment [2] it was no more than 3 µM.

Regarding `CCONC(=O)c1ccncc1Nc1ccc(I)cc1Cl` [Example 76], the IC50 in experiment [1] was 3 to 10 µM; on human MEK1, less than 1000 nM; in the experiment with Murine colon C26 cells it was 3 to 10 µM; in experiment [2], no more than 3 µM.

As to `Cc1nccc(C(N)=O)c1Nc1ccc(I)cc1F` [Example 100, 3-(2-Fluoro-4-iodo-phenylamino)-2-methyl-isonicotinamide], the IC50 in experiment [1] was 3 to 10 µM; at human MEK1 it was less than 1000 nM; with Murine colon C26 cells, 3 to 10 µM; in experiment [2] it was no more than 3 µM.

On to `O=C(NCCN1CCCCC1)c1ccncc1Nc1ccc(I)cc1F` [Example 33, 3-[(2-fluoro-4-iodophenyl)amino]-N-(2-piperidin-1-ylethyl)-isonicotinamide], for which the IC50 is no more than 3 µM in experiment [1], less than 1000 nM at human MEK1, no more than 3 µM with Murine colon C26 cells and no more than 3 µM in experiment [2].

Regarding `O=C(NCC(O)COc1ccccc1)c1ccncc1Nc1ccc(I)cc1F` (centres unmarked) [Example 83], the IC50 was no more than 3 µM in experiment [1], less than 1000 nM on human MEK1, no more than 3 µM in the experiment on Murine colon C26 cells and no more than 3 µM in experiment [2].

For the molecule `O=C(NOCc1ccccc1)c1ccncc1Nc1ccc(I)cc1F` [Example 91, N-(benzyloxy)-3-[(2-fluoro-4-iodophenyl)amino]isonicotinamide], the IC50 in experiment [1] was 3 to 10 µM; at human MEK1, less than 1000 nM; with Murine colon C26 cells it was 3 to 10 µM; in experiment [2], no more than 3 µM.
